Data reported in US20090226527A1, “Particulate-stabilized injectable pharmacutical compositions of posaconazole” (priority 2004, published 2009).
In brackets after ≈: the same amount, converted by molar mass.

Test system: infectious agents (strains tested)
Test: organism not typed
Format: cell-based

Compound `C[C@@H]1[C@H](O)[C@@H](C)/C=C/C=C/C=C/C=C/C=C/C=C/C=C/[C@H](O[C@@H]2O[C@H](C)[C@@H](O)[C@H](N)[C@@H]2O)C[C@@H]2O[C@](O)(C[C@@H](O)C[C@@H](O)[C@H](O)CC[C@@H](O)C[C@@H](O)CC(=O)O[C@H]1C)C[C@H](O)[C@H]2C(=O)O` [Amphotericin] has an MIC (Absidia spp, read-out: Geometric Mean MIC) of 0.545 µg/mL (≈ 0.59 µM), an MIC (Absidia spp, read-out: MIC[90]) of 0.25 to 2 µg/mL (≈ 0.271 to 2.16 µM) and an MIC (Alternaria spp, read-out: Geometric Mean MIC) of 0.852 µg/mL (≈ 0.922 µM). For the same compound, the MIC (Alternaria spp, read-out: MIC[90]) was 4 µg/mL (≈ 4.33 µM), the MIC (Apophysomyces spp, read-out: Geometric Mean MIC) was 0.5 µg/mL (≈ 0.541 µM) and the MIC (Apophysomyces spp, read-out: MIC[90]) was 0.031 to 4 µg/mL (≈ 0.0335 to 4.33 µM). For the same compound, the MIC (Aspergillus flavus, read-out: Geometric Mean MIC) was 0.91 µg/mL (≈ 0.985 µM), the MIC (Aspergillus flavus, read-out: MIC[90]) was 2 µg/mL (≈ 2.16 µM) and the MIC (Aspergillus fumigatus, read-out: Geometric Mean MIC) was 0.683 µg/mL (≈ 0.739 µM). For the same compound, the MIC (Aspergillus fumigatus, read-out: MIC[90]) was 1 µg/mL (≈ 1.08 µM), the MIC (Aspergillus nidulans, read-out: Geometric Mean MIC) was 0.758 µg/mL (≈ 0.82 µM) and the MIC (Aspergillus nidulans, read-out: MIC[90]) was 2 µg/mL (≈ 2.16 µM). For the same compound, the MIC (Aspergillus niger, read-out: Geometric Mean MIC) was 0.36 µg/mL (≈ 0.39 µM), the MIC (Aspergillus niger, read-out: MIC[90]) was 1 µg/mL (≈ 1.08 µM) and the MIC (Aspergillus sydowii, read-out: Geometric Mean MIC) was 1.26 µg/mL (≈ 1.36 µM). For the same compound, the MIC (Aspergillus sydowii, read-out: MIC[90]) was 1 to 2 µg/mL (≈ 1.08 to 2.16 µM), the MIC (Aspergillus terreus, read-out: Geometric Mean MIC) was 1.76 µg/mL (≈ 1.9 µM) and the MIC (Aspergillus terreus, read-out: MIC[90]) was 4 µg/mL (≈ 4.33 µM). For the same compound, the MIC (Aspergillus ustus, read-out: Geometric Mean MIC) was 0.673 µg/mL (≈ 0.728 µM), the MIC (Aspergillus ustus, read-out: MIC[90]) was 0.25 to 1 µg/mL (≈ 0.271 to 1.08 µM) and the MIC (Bipolaris spp, read-out: Geometric Mean MIC) was 0.25 µg/mL (≈ 0.271 µM). It also gave an MIC (Bipolaris spp, read-out: MIC[90]) of 0.25 µg/mL (≈ 0.271 µM), an MIC (Bjerkandera adusta, read-out: Geometric Mean MIC) of 0.215 µg/mL (≈ 0.233 µM) and an MIC (Bjerkandera adusta, read-out: MIC[90]) of 0.25 µg/mL (≈ 0.271 µM). It also gave an MIC (Blastomyces dermatitidis, read-out: Geometric Mean MIC) of 0.153 µg/mL (≈ 0.166 µM), an MIC (Blastomyces dermatitidis, read-out: MIC[90]) of 0.5 µg/mL (≈ 0.541 µM) and an MIC (Candida albicans, read-out: Geometric Mean MIC) of 0.686 µg/mL (≈ 0.742 µM). The MIC (Candida albicans, read-out: MIC[90]) was 1 µg/mL (≈ 1.08 µM), the MIC (Candida dubliniensis, read-out: Geometric Mean MIC) was 0.513 µg/mL (≈ 0.555 µM) and the MIC (Candida dubliniensis, read-out: MIC[90]) was 1 µg/mL (≈ 1.08 µM). It also gave an MIC (Candida tropicalis, read-out: Geometric Mean MIC) of 0.774 µg/mL (≈ 0.838 µM), an MIC (Candida tropicalis, read-out: MIC[90]) of 1 µg/mL (≈ 1.08 µM) and an MIC (Clavispora lusitaniae, Candida lusitaniae, read-out: Geometric Mean MIC) of 0.506 µg/mL (≈ 0.548 µM). The MIC (Clavispora lusitaniae, Candida lusitaniae, read-out: MIC[90]) was 1 µg/mL (≈ 1.08 µM), the MIC (Coccidioides immitis, read-out: Geometric Mean MIC, Coccidioides immitis) was 0.39 µg/mL (≈ 0.422 µM) and the MIC (Coccidioides immitis, read-out: MIC[90], Coccidioides immitis) was 0.5 µg/mL (≈ 0.541 µM). The MIC (Cryptococcus neoformans, read-out: Geometric Mean MIC) was 0.667 µg/mL (≈ 0.722 µM), the MIC (Cryptococcus neoformans, read-out: MIC[90]) was 1 µg/mL (≈ 1.08 µM) and the MIC (Curvularia spp, read-out: Geometric Mean MIC) was 0.5 µg/mL (≈ 0.541 µM). For the same compound, the MIC (Curvularia spp, read-out: MIC[90]) was 0.5 µg/mL (≈ 0.541 µM), the MIC (Debaryomyces hansenii, Candida famata, read-out: Geometric Mean MIC) was 0.841 µg/mL (≈ 0.91 µM) and the MIC (Debaryomyces hansenii, Candida famata, read-out: MIC[90]) was 2 µg/mL (≈ 2.16 µM). For the same compound, the MIC (Diutina rugosa, Candida rugosa, read-out: Geometric Mean MIC) was 0.665 µg/mL (≈ 0.72 µM), the MIC (Diutina rugosa, Candida rugosa, read-out: MIC[90]) was 1 µg/mL (≈ 1.08 µM) and the MIC (Dujonia zeylanoides, Candida zeylanoides, read-out: Geometric Mean MIC) was 1 µg/mL (≈ 1.08 µM). The MIC (Dujonia zeylanoides, Candida zeylanoides, read-out: MIC[90]) was 1 µg/mL (≈ 1.08 µM), the MIC (Exophiala dermatidis, read-out: Geometric Mean MIC) was 0.5 µg/mL (≈ 0.541 µM) and the MIC (Exophiala dermatidis, read-out: MIC[90]) was 0.5 µg/mL (≈ 0.541 µM). It also gave an MIC (Exophiala dermatitidis, Wangiella dermatitidis, read-out: Geometric Mean MIC) of 0.63 µg/mL (≈ 0.682 µM), an MIC (Exophiala dermatitidis, Wangiella dermatitidis, read-out: MIC[90]) of 0.25 to 1 µg/mL (≈ 0.271 to 1.08 µM) and an MIC (Exophiala jeanselmei, read-out: Geometric Mean MIC) of 0.66 µg/mL (≈ 0.714 µM). The MIC (Exophiala jeanselmei, read-out: MIC[90]) was 1 µg/mL (≈ 1.08 µM), the MIC (Exophiala moniliae, read-out: Geometric Mean MIC) was 0.177 µg/mL (≈ 0.192 µM) and the MIC (Exophiala moniliae, read-out: MIC[90]) was 0.125 to 0.25 µg/mL (≈ 0.135 to 0.271 µM). The MIC (Fonsecae pedrosoi, read-out: Geometric Mean MIC) was 1 µg/mL (≈ 1.08 µM), the MIC (Fonsecae pedrosoi, read-out: MIC[90]) was 1 µg/mL (≈ 1.08 µM) and the MIC (Fusarium spp, read-out: Geometric Mean MIC) was 1.2 µg/mL (≈ 1.3 µM). The MIC (Fusarium spp, read-out: MIC[90]) was 2 µg/mL (≈ 2.16 µM), the MIC (Hansenula anomala, Pichia anomala, read-out: Geometric Mean MIC) was 0.707 µg/mL (≈ 0.765 µM) and the MIC (Hansenula anomala, Pichia anomala, read-out: MIC[90]) was 1 µg/mL (≈ 1.08 µM). It also gave an MIC (Histoplasma capsulatum, read-out: Geometric Mean MIC, Histoplasma capsulatum) of 0.25 µg/mL (≈ 0.271 µM), an MIC (Histoplasma capsulatum, read-out: MIC[90], Histoplasma capsulatum) of 0.5 µg/mL (≈ 0.541 µM) and an MIC (Kluyveromyces marxianus, Candida kefyr, read-out: Geometric Mean MIC) of 0.779 µg/mL (≈ 0.843 µM). It also gave an MIC (Kluyveromyces marxianus, Candida kefyr, read-out: MIC[90]) of 1 µg/mL (≈ 1.08 µM), an MIC (Kluyveromyces marxianus, read-out: Geometric Mean MIC) of 1 µg/mL (≈ 1.08 µM) and an MIC (Kluyveromyces marxianus, read-out: MIC[90]) of 1 µg/mL (≈ 1.08 µM). It also gave an MIC (Lodderomyces parapsilosis, Candida parapsilosis, read-out: Geometric Mean MIC) of 0.761 µg/mL (≈ 0.824 µM), an MIC (Lodderomyces parapsilosis, Candida parapsilosis, read-out: MIC[90]) of 1 µg/mL (≈ 1.08 µM) and an MIC (Meyerozyma guilliermondii, Candida guilliermondii, read-out: Geometric Mean MIC) of 0.553 µg/mL (≈ 0.598 µM). For the same compound, the MIC (Meyerozyma guilliermondii, Candida guilliermondii, read-out: MIC[90]) was 1 µg/mL (≈ 1.08 µM), the MIC (Mucor spp, read-out: Geometric Mean MIC) was 0.274 µg/mL (≈ 0.297 µM) and the MIC (Mucor spp, read-out: MIC[90]) was 1 µg/mL (≈ 1.08 µM). It also gave an MIC (Nakaseomyces glabratus, Candida glabrata, read-out: Geometric Mean MIC) of 0.798 µg/mL (≈ 0.864 µM), an MIC (Nakaseomyces glabratus, Candida glabrata, read-out: MIC[90]) of 1 µg/mL (≈ 1.08 µM) and an MIC (Paecilomyces spp, read-out: Geometric Mean MIC) of 1.1 µg/mL (≈ 1.19 µM). The MIC (Paecilomyces spp, read-out: MIC[90]) was 16 µg/mL (≈ 17.3 µM), the MIC (Papiliotrema laurentii, Cryptococcus laurentii, read-out: Geometric Mean MIC) was 0.794 µg/mL (≈ 0.859 µM) and the MIC (Papiliotrema laurentii, Cryptococcus laurentii, read-out: MIC[90]) was 0.5 to 1 µg/mL (≈ 0.541 to 1.08 µM). It also gave an MIC (Paracoccidioides brasiliensis, read-out: Geometric Mean MIC, Paracoccidioides brasiliensis) of 0.096 µg/mL (≈ 0.104 µM), an MIC (Paracoccidioides brasiliensis, read-out: MIC[90], Paracoccidioides brasiliensis) of 0.25 µg/mL (≈ 0.271 µM) and an MIC (Penicillium spp, read-out: Geometric Mean MIC) of 1.02 µg/mL (≈ 1.11 µM). The MIC (Penicillium spp, read-out: MIC[90]) was 4 µg/mL (≈ 4.33 µM), the MIC (Pichia etchel, read-out: Geometric Mean MIC) was 0.063 µg/mL (≈ 0.0682 µM) and the MIC (Pichia etchel, read-out: MIC[90]) was 0.063 µg/mL (≈ 0.0682 µM). It also gave an MIC (Pichia kudriavzevii, Candida krusei, read-out: Geometric Mean MIC) of 0.976 µg/mL (≈ 1.06 µM), an MIC (Pichia kudriavzevii, Candida krusei, read-out: MIC[90]) of 2 µg/mL (≈ 2.16 µM) and an MIC (Pleurothecium obovoideum, Ramichloridium obovoideum, read-out: Geometric Mean MIC) of 1 µg/mL (≈ 1.08 µM). For the same compound, the MIC (Pleurothecium obovoideum, Ramichloridium obovoideum, read-out: MIC[90]) was 1 µg/mL (≈ 1.08 µM), the MIC (Rhizomucor spp, read-out: Geometric Mean MIC) was 0.063 µg/mL (≈ 0.0682 µM) and the MIC (Rhizomucor spp, read-out: MIC[90]) was 0.063 µg/mL (≈ 0.0682 µM). For the same compound, the MIC (Rhizopus spp, read-out: Geometric Mean MIC) was 0.635 µg/mL (≈ 0.687 µM), the MIC (Rhizopus spp, read-out: MIC[90]) was 2 µg/mL (≈ 2.16 µM) and the MIC (Saccharomyces cerevisiae, read-out: Geometric Mean MIC) was 0.775 µg/mL (≈ 0.839 µM). For the same compound, the MIC (Saccharomyces cerevisiae, read-out: MIC[90]) was 1 µg/mL (≈ 1.08 µM), the MIC (Scedosporium apiospermum, read-out: Geometric Mean MIC) was 2.27 µg/mL (≈ 2.46 µM) and the MIC (Scedosporium apiospermum, read-out: MIC[90]) was 8 µg/mL (≈ 8.66 µM). It also gave an MIC (Scedosporium boydii, Pseudallescheria boydii, read-out: Geometric Mean MIC) of 1.72 µg/mL (≈ 1.86 µM), an MIC (Scedosporium boydii, Pseudallescheria boydii, read-out: MIC[90]) of 4 µg/mL (≈ 4.33 µM) and an MIC (Sporothrix schenckii, read-out: Geometric Mean MIC) of 0.574 µg/mL (≈ 0.621 µM). It also gave an MIC (Sporothrix schenckii, read-out: MIC[90]) of 1 µg/mL (≈ 1.08 µM), an MIC (Trichophyton mentagrophytes, read-out: Geometric Mean MIC) of 1 µg/mL (≈ 1.08 µM) and an MIC (Trichophyton mentagrophytes, read-out: MIC[90]) of 1 µg/mL (≈ 1.08 µM). It also gave an MIC (Trichophyton tonsurans, read-out: Geometric Mean MIC) of 1.26 µg/mL (≈ 1.36 µM), an MIC (Trichophyton tonsurans, read-out: MIC[90]) of 0.5 to 8 µg/mL (≈ 0.541 to 8.66 µM) and an MIC (Trichosporon spp, read-out: Geometric Mean MIC) of 1.32 µg/mL (≈ 1.43 µM). The MIC (Trichosporon spp, read-out: MIC[90]) was 1 to 2 µg/mL (≈ 1.08 to 2.16 µM), the MIC (Yarrowia lipolytica, read-out: Geometric Mean MIC) was 0.5 µg/mL (≈ 0.541 µM) and the MIC (Yarrowia lipolytica, read-out: MIC[90]) was 0.5 µg/mL (≈ 0.541 µM).
